Measured values reported in the supplement of paper PMC10307832.

What was measured:
Test in all cases: relative viability (nuclei count vs DMSO), 5 days (fraction); higher = more cells survive
[1] = test system: ABC-1
How it was run: (§1)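 Lung cancer cell lines in 1536-well plates got either a single drug or a fixed anchor-drug dose together with five library-drug doses (not always all listed) in √10 steps, by pin tool, on the day after seeding. Nuclei were counted after 5 days, and relative viability is the treated-to-vehicle ratio of nuclei counts. Values are medians of duplicate plates.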

[2] = test system: NCI-H2009
How it was run: as §1

[3] = test system: SK-MES-1
How it was run: as §1

[4] = test system: NCI-H1993
How it was run: as §1

[5] = test system: NCI-H596
How it was run: as §1

[6] = test system: SK-LU-1
How it was run: as §1

[7] = test system: LK-2
How it was run: as §1

[8] = test system: NCI-H2228
How it was run: as §1

[9] = test system: NCI-H2170
How it was run: as §1

[10] = test system: NCI-H1793
How it was run: as §1

[11] = test system: A-427
How it was run: as §1

[12] = test system: NCI-H1944
How it was run: as §1

[13] = test system: SW 1573
How it was run: as §1

[14] = test system: NCI-H727
How it was run: as §1

[15] = test system: COR-L23
How it was run: as §1

[16] = test system: HARA
How it was run: as §1

[17] = test system: HOP-62
How it was run: as §1

[18] = test system: SW 900
How it was run: as §1

[19] = test system: NCI-H3122
How it was run: as §1

[20] = test system: EMC-BAC-2
How it was run: as §1

[21] = test system: PC-3 [JPC-3]
How it was run: as §1

[22] = test system: LXF-289
How it was run: as §1

Q: Which relative viability ([1]; first compound 0.04 µM) does the source give for O=C(O)c1ccc(-c2c[nH]c3ncc(-c4ccccc4)cc23)cc1C1CCCC1 + Cc1cc(Nc2cc(N3CCN(C)CC3)nc(Sc3ccc(NC(=O)C4CC4)cc3)n2)n[nH]1 [Tozasertib] (partner 0.1 µM) here?
A: The relative viability was 0.2.

Q: And the relative viability ([1]; first compound 0.1265 µM)?
A: The relative viability was 0.192.

Q: And the relative viability ([1]; first compound 0.4 µM)?
A: The relative viability was 0.147.

Q: What about the relative viability ([1]; first compound 1.265 µM) of the same molecule?
A: Its relative viability is 0.18.

Q: And the relative viability ([2]; first compound 0.04 µM)?
A: Its relative viability is 0.734.

Q: What about the relative viability ([2]; first compound 0.1265 µM) of the same molecule?
A: Its relative viability is 0.776.

Q: What about the relative viability ([2]; first compound 0.4 µM) of the same molecule?
A: Its relative viability is 0.681.

Q: And the relative viability ([2]; first compound 1.265 µM)?
A: The relative viability was 0.564.

Q: What about the relative viability ([3]; first compound 0.04 µM) of the same molecule?
A: Its relative viability is 0.93.

Q: What about the relative viability ([3]; first compound 0.1265 µM) of the same molecule?
A: The relative viability was 0.973.

Q: What about the relative viability ([3]; first compound 0.4 µM) of the same molecule?
A: The relative viability was 0.748.

Q: And the relative viability ([3]; first compound 1.265 µM)?
A: Its relative viability is 0.396.

Q: And the relative viability ([4]; first compound 0.04 µM)?
A: The relative viability was 0.556.

Q: And the relative viability ([4]; first compound 0.1265 µM)?
A: The relative viability was 0.604.

Q: And the relative viability ([4]; first compound 0.4 µM)?
A: The relative viability was 0.55.

Q: And the relative viability ([4]; first compound 1.265 µM)?
A: The relative viability was 0.606.

Q: What about the relative viability ([5]; first compound 0.04 µM) of the same molecule?
A: Its relative viability is 0.863.

Q: And the relative viability ([5]; first compound 0.1265 µM)?
A: The relative viability was 0.802.

Q: And the relative viability ([5]; first compound 0.4 µM)?
A: Its relative viability is 0.851.

Q: What about the relative viability ([5]; first compound 1.265 µM) of the same molecule?
A: Its relative viability is 0.93.

Q: And the relative viability ([6]; first compound 0.04 µM)?
A: The relative viability was 0.296.

Q: And the relative viability ([6]; first compound 0.1265 µM)?
A: Its relative viability is 0.347.

Q: And the relative viability ([6]; first compound 0.4 µM)?
A: Its relative viability is 0.298.

Q: What about the relative viability ([6]; first compound 1.265 µM) of the same molecule?
A: Its relative viability is 0.292.

Q: What about the relative viability ([7]; first compound 0.04 µM) of the same molecule?
A: The relative viability was 0.186.

Q: And the relative viability ([7]; first compound 0.1265 µM)?
A: The relative viability was 0.161.

Q: What about the relative viability ([7]; first compound 0.4 µM) of the same molecule?
A: The relative viability was 0.181.

Q: What about the relative viability ([7]; first compound 1.265 µM) of the same molecule?
A: Its relative viability is 0.184.

Q: And the relative viability ([8]; first compound 0.04 µM)?
A: Its relative viability is 0.244.

Q: What about the relative viability ([8]; first compound 0.1265 µM) of the same molecule?
A: The relative viability was 0.272.

Q: What about the relative viability ([8]; first compound 0.4 µM) of the same molecule?
A: The relative viability was 0.218.

Q: And the relative viability ([8]; first compound 1.265 µM)?
A: Its relative viability is 0.186.

Q: And the relative viability ([9]; first compound 0.04 µM)?
A: Its relative viability is 0.721.

Q: And the relative viability ([9]; first compound 0.1265 µM)?
A: The relative viability was 0.726.

Q: What about the relative viability ([9]; first compound 0.4 µM) of the same molecule?
A: The relative viability was 0.679.

Q: And the relative viability ([9]; first compound 1.265 µM)?
A: Its relative viability is 0.612.

Q: And the relative viability ([10]; first compound 0.04 µM)?
A: Its relative viability is 0.345.

Q: And the relative viability ([10]; first compound 0.1265 µM)?
A: Its relative viability is 0.323.

Q: What about the relative viability ([10]; first compound 0.4 µM) of the same molecule?
A: The relative viability was 0.513.

Q: And the relative viability ([10]; first compound 1.265 µM)?
A: Its relative viability is 0.266.

Q: And the relative viability ([11]; first compound 0.04 µM)?
A: The relative viability was 0.23.

Q: And the relative viability ([11]; first compound 0.1265 µM)?
A: Its relative viability is 0.255.

Q: And the relative viability ([11]; first compound 0.4 µM)?
A: The relative viability was 0.182.

Q: What about the relative viability ([11]; first compound 1.265 µM) of the same molecule?
A: The relative viability was 0.182.

Q: And the relative viability ([12]; first compound 0.04 µM)?
A: The relative viability was 0.231.

Q: And the relative viability ([12]; first compound 0.1265 µM)?
A: Its relative viability is 0.259.

Q: What about the relative viability ([12]; first compound 0.4 µM) of the same molecule?
A: Its relative viability is 0.233.

Q: And the relative viability ([12]; first compound 1.265 µM)?
A: Its relative viability is 0.249.

Q: And the relative viability ([13]; first compound 0.04 µM)?
A: Its relative viability is 0.183.

Q: What about the relative viability ([13]; first compound 0.1265 µM) of the same molecule?
A: The relative viability was 0.194.

Q: What about the relative viability ([13]; first compound 0.4 µM) of the same molecule?
A: The relative viability was 0.211.

Q: What about the relative viability ([13]; first compound 1.265 µM) of the same molecule?
A: Its relative viability is 0.148.

Q: What about the relative viability ([14]; first compound 0.04 µM) of the same molecule?
A: Its relative viability is 0.67.

Q: And the relative viability ([14]; first compound 0.1265 µM)?
A: The relative viability was 0.533.

Q: What about the relative viability ([14]; first compound 0.4 µM) of the same molecule?
A: The relative viability was 0.407.

Q: What about the relative viability ([14]; first compound 1.265 µM) of the same molecule?
A: Its relative viability is 0.578.

Q: And the relative viability ([15]; first compound 0.04 µM)?
A: The relative viability was 0.208.

Q: What about the relative viability ([15]; first compound 0.1265 µM) of the same molecule?
A: Its relative viability is 0.177.

Q: And the relative viability ([15]; first compound 0.4 µM)?
A: Its relative viability is 0.166.

Q: What about the relative viability ([15]; first compound 1.265 µM) of the same molecule?
A: The relative viability was 0.119.

Q: And the relative viability ([16]; first compound 0.04 µM)?
A: Its relative viability is 0.104.

Q: And the relative viability ([16]; first compound 0.1265 µM)?
A: Its relative viability is 0.0989.

Q: And the relative viability ([16]; first compound 0.4 µM)?
A: The relative viability was 0.197.

Q: What about the relative viability ([16]; first compound 1.265 µM) of the same molecule?
A: The relative viability was 0.0904.

Q: And the relative viability ([17]; first compound 0.04 µM)?
A: Its relative viability is 0.393.

Q: And the relative viability ([17]; first compound 0.1265 µM)?
A: Its relative viability is 0.332.

Q: And the relative viability ([17]; first compound 0.4 µM)?
A: The relative viability was 0.304.

Q: And the relative viability ([17]; first compound 1.265 µM)?
A: Its relative viability is 0.308.

Q: And the relative viability ([18]; first compound 0.04 µM)?
A: The relative viability was 0.638.

Q: And the relative viability ([18]; first compound 0.1265 µM)?
A: Its relative viability is 0.585.

Q: What about the relative viability ([18]; first compound 0.4 µM) of the same molecule?
A: Its relative viability is 0.526.

Q: And the relative viability ([18]; first compound 1.265 µM)?
A: The relative viability was 0.311.

Q: What about the relative viability ([19]; first compound 0.04 µM) of the same molecule?
A: Its relative viability is 0.568.

Q: What about the relative viability ([19]; first compound 0.1265 µM) of the same molecule?
A: Its relative viability is 0.45.

Q: What about the relative viability ([19]; first compound 0.4 µM) of the same molecule?
A: The relative viability was 0.407.

Q: What about the relative viability ([19]; first compound 1.265 µM) of the same molecule?
A: The relative viability was 0.326.

Q: What about the relative viability ([20]; first compound 0.04 µM) of the same molecule?
A: Its relative viability is 0.29.

Q: And the relative viability ([20]; first compound 0.1265 µM)?
A: The relative viability was 0.283.

Q: What about the relative viability ([20]; first compound 0.4 µM) of the same molecule?
A: Its relative viability is 0.272.

Q: What about the relative viability ([20]; first compound 1.265 µM) of the same molecule?
A: The relative viability was 0.272.

Q: And the relative viability ([21]; first compound 0.04 µM)?
A: The relative viability was 0.926.

Q: And the relative viability ([21]; first compound 0.1265 µM)?
A: The relative viability was 0.881.

Q: What about the relative viability ([21]; first compound 0.4 µM) of the same molecule?
A: Its relative viability is 0.766.

Q: What about the relative viability ([21]; first compound 1.265 µM) of the same molecule?
A: Its relative viability is 0.65.

Q: What about the relative viability ([22]; first compound 0.04 µM) of the same molecule?
A: Its relative viability is 0.229.

Q: And the relative viability ([22]; first compound 0.1265 µM)?
A: Its relative viability is 0.187.

Q: And the relative viability ([22]; first compound 0.4 µM)?
A: Its relative viability is 0.126.

Q: What about the relative viability ([22]; first compound 1.265 µM) of the same molecule?
A: Its relative viability is 0.143.
